According to US20100255580A1, “Differentiation of Human Embryonic Stem Cells” (LIFESCCAN, INC., priority 2007, published 2010):

System: H9 embryonic stem cells
Format: cell-based, human
Conditions: low serum, on MEFS
Procedure: Controls for each group included cells plated on […]-coated dishes and cultured in MEF-conditioned medium or cells plated on MEFs and cultured in ES medium. All groups contained three biological replicates and each biological replicate was repeated on two separate gene chips.
Sample preparation, hybridization, and image analysis were performed according to the Affymetrix Human Genome U133 Plus 2.0 Array. Following normalization and a log transformation, data analysis was performed using OmniViz® software (MA) and […] (VizXLabs, WA). Significant differences in gene expression between the samples were evaluated using analysis of variance and an F-test with adjusted P-value (Benjamini and
Hochberg correction) of ≦b 0.05. Only genes with a present call in at least one group were included in the analysis.

Activin A: a member of the TGFβ superfamily; R&D Systems; Group 2 = Activin A (100 ng/ml)
log intensity, ESTs (r891): −0.1307
log intensity, ESTs (r916): 1.395
log intensity, ESTs (r938): −0.6132
log intensity, ESTs (r980): 0.5547
log intensity, ESTs (r1021): 0.6436
log intensity, ESTs (r1022): 3.471
log intensity, ESTs (r1059): 2.077
log intensity, ESTs (r1060): 2.463
log intensity, ESTs (r1110): 3.792
log intensity, ESTs (r1115): 2.521
log intensity, ESTs, Highly similar to AF229172 1 class III myosin: 0.002417
log intensity, ESTs, Moderately similar to ALU4_HUMAN ALU SUBFAMILY SB2: −0.9837
log intensity, ESTs, Moderately similar to JC4969 pig-c protein: −1.045
log intensity, ESTs, Moderately similar to NFY-C: −0.2427
log intensity, ESTs, Weakly similar to A46302 PTB-associated splicing factor, long form: 2.695
log intensity, ESTs, Weakly similar to ALU8_HUMAN ALU SUBFAMILY SX: 4.578
log intensity, ESTs, Weakly similar to ALUC_HUMAN: 2.7193
log intensity, ESTs, Weakly similar to ALUF_HUMAN: 0.5876
log intensity, ESTs, Weakly similar to KIAA1330 protein: 1.182
log intensity, ESTs, Weakly similar to KIAA1399 protein: 2.8
log intensity, ESTs, Weakly similar to T32252 hypothetical protein T15B7.2: 3.333
log intensity, ESTs, Weakly similar to Z132_HUMAN ZINC FINGER PROTEIN 13: 2.122
log intensity, F37Esophageal cancer-related gene-coding leucine-zipper motif (FEZ1): 2.104
log intensity, FLICE-like inhibitory protein short form: 4.928
log intensity, GS1999full mRNA: 0.8499
log intensity, H1 histone family, member X (H1FX): 4.51
log intensity, H2A histone family, member X: −0.04057
log intensity, H. sapiens skeletal embryonic myosin light chain 1 (MLC1): 2.36
log intensity, HT016 mRNA: 2.452
log intensity, Homo sapiens nudix (nucleoside diphosphate linked moiety X)-type motif (r1198): 6.428
log intensity, Human DNA sequence from clone RP4-781L3 on chromosome 1p34.3-36.11: 4.439
log intensity, Human DNA sequence from clone RP11-446H13 on chromosome 10: 2.12
log intensity, Human MLC1emb gene for embryonic myosin alkaline light chain, promoter and exon 1: 4.04
log intensity, Human clone 23826 mRNA sequence: 1.443
log intensity, Human embryonic myosin alkali light chain (MLC1): 4.115
log intensity, Human extracellular matrix protein 1 (ECM1): 1.376
log intensity, Human mRNA for pro-alpha 1 (II) collagen 3end C-term.: 2.157
log intensity, Human rho GDI mRNA: −0.6515
log intensity, KIAA0127 gene product (KIAA0127): 3.002
log intensity, KIAA0346 protein: 1.415
log intensity, KIAA0418 gene product: 0.03438
log intensity, KIAA0761 protein: 1.059
log intensity, KIAA0882 protein: 4.675
log intensity, KIAA0918 protein: −0.575
log intensity, KIAA1415 protein: 1.743
log intensity, KIAA1511 protein: 1.575
log intensity, Kruppel-like factor 8 (KLF8): 1.639
log intensity, LIM homeobox protein 1 (LHX1): 0.08556
log intensity, LYST-interacting protein LIP3: −0.3125
log intensity, MAD (mothers against decapentaplegic, Drosophila) homolog 6 (MADH6): 3.5309
log intensity, MYC-associated zinc finger protein (purine-binding transcription factor) (MAZ): 0.5113
log intensity, Novel human mRNA from chromosome 22: 3.058
log intensity, PNAS-145 mRNA: 4.2868
log intensity, PRO1957 mRNA: 4.227
log intensity, PTPRF interacting protein, binding protein 2 (liprin beta 2): 2.773
log intensity, Pig10 (PIG10): 1.098
log intensity, SG2NA beta isoform: −1.534
log intensity, Similar to B9 protein, clone MGC: 11339: 2.292
log intensity, Similar to RIKEN cDNA C330013D18 gene, clone MGC: 11226: 1.427
log intensity, Similar to lipase protein, clone MGC: 2843: 0.9617
log intensity, X75208 H. sapiens HEK2 mRNA for protein tyrosine kinase receptor: 1.082
log intensity, adaptor-related protein complex 3, beta 2 subunit (AP3B2): 1.074
log intensity, adenylate cyclase 8 (brain) (ADCY8): −2.261
log intensity, alpha 2,8-sialyltransferase: 1.055
log intensity, aminolevulinate, delta-, dehydratase, clone MGC: 5057: 2.769
log intensity, annexin A6 (ANXA6), transcript variant 1: 4.5
log intensity, apolipoprotein A-II (APOA2): 4.759
log intensity, apolipoprotein C-I (APOC1): 5.51
log intensity, arrestin, beta 1 (ARRB1), transcript variant 1: −0.4092
